Assay results as given in patent publication US11291642B2, “Dimethyl fumarate particles and pharmaceutical compositions thereof” (BIOGEN MA INC., priority 2015, dated 2022).
Structures can show the parent of a compound that is named as a salt.

How the values were obtained:
[1] = Comparison of unmilled coarse DMF versus wet-milled DMF for enteric coating in fluid bed; assay type: physicochemical; details: for Coated crystals: enterically coated particles made from the named API
Method: The enteric coated DMF is prepared using a Glatt GPCG-2 fluid bed granulator with a 6′ Wurster column. Dissolution was run with USP apparatus II by the Pharmaceutical Analytical Development Department with the following method.
DMF first de-lumped with a Frewitt Comill with screen size 1.0 mm. Then, it is mixed with silicon dioxide (Aerosil) and being fluidize in the fluid bed granulator for 5 minutes.
Eudragit L100 and triethyl citrate is used for coating an enteric layer for stomach acid protection on the DMF API particles. Samples were taken at different L100 weight gain to compare gastric protection capability.
Unmilled coarse DMF were coated according to the method of described in Example 5. Various properties of the unmilled coarse DMF and enterically coated DMF are compared with wet-milled DMF and enterically coated DMF made from wet-milled DMF.

[2] = Mean particle size of coarse DMF from current synthesis (method not given); assay type: physicochemical; details: DMF isolated from current chemical synthesis, before size reduction

Coated crystals [1]: Significant agglomeration | Flow of API particle in fluid bed ([1]; fluid bed coating process): Uneven flow due to API plate | Particle morphology ([1]; uncoated API particles): 2D plate structure | typical mean particle size [2]: 500-600 microns
Structure (SMILES): COC(=O)/C=C/C(=O)OC [Unmilled coarse API, dimethyl fumarate]
Coated crystals ([1]; listed as unmilled coarse DMF particles): Significant agglomeration of the coated particles
